Key:
RPMI 8226 myeloma cells = assay: RPMI 8226 multiple myeloma subcutaneous tumors in SCID mice, 6 weeks of dosing; details: for tumor growth inhibited compared to control nanoparticles: end of 6 weeks of dosing
Procedure: SCID mice are injected subcutaneously with RPMI 8226 cells. […] Groups of six SCID/CB17 mice (3-5 weeks old) are injected with 12 million RPMI 8226 myeloma cells in 200 μL PBS in their right flank and treatment is initiated when the tumours reached a minimum size of 10 mm^3.
Control mice are injected intravenously two times per week with PEI complexes containing pCpG-mcs (empty vector) and control siRNA at a dose of 0.375 mg (nucleic acid)/kg. Mice receiving SNS01-T were injected intra-venously two times per week at 0.375 mg/kg. Mice treated with lenalidomide received 5 doses per week by intra-peritoneal injection of lenalidomide (Celgene) at doses of 15 mg/kg or 50 mg/kg. Mice receiving both SNS01-T and lenalidomide were dosed 2×/week with SNS01-T by intra-venous injection at 0.375 mg/kg and 5× per week with lenalidomide by intra-peritoneal injection at either 15 mg/kg or 50 mg/kg. […] Tumor volume is measured for all the mice in each group at least twice weekly.

[1] = test system: human myeloma tumors derived from RPMI 8226 cells; assay: Additional study: RPMI 8226 myeloma tumors in mice, 2 cycles of treatment, 102 days; assay type: in vivo
Procedure: In an additional study, mice implanted with human myeloma tumors derived from RPMI 8226 cells were randomized into 4 groups and treated with control nanoparticles, or, either SNS01-T (0.375 mg/kg; i.v., twice per week), lenalidomide (50 mg/kg; i.p., 5× per week) or both. The mice received 2 cycles of treatment, 6 weeks and 5 weeks respectively, with an 11 day rest period between cycles. Mice, whose tumors were undetectable at the end of cycle 1, received no drug treatment in cycle 2 unless tumor reappeared. The mice were monitored for 2 weeks after the end of the second cycle of treatment. The total length of the study was 102 days.

Compound: Nc1cccc2c1CN(C1CCC(=O)NC1=O)C2=O (racemic) [lenalidomide, 3-(4-amino-oxo-1,3-dihydro-isoindol-2-yl)-piperidine-2,6-dione]
- tumor growth inhibited compared to control nanoparticles (RPMI 8226 myeloma cells; lenalidomide 15 mg/kg i.p. 5 doses/week (alone, or with SNS01-T 0.375 mg/kg i.v. 2x/week)): 51%
- tumor growth inhibited compared to control nanoparticles (RPMI 8226 myeloma cells; lenalidomide 50 mg/kg i.p. 5 doses/week (alone, or with SNS01-T 0.375 mg/kg i.v. 2x/week)): 78%
- surviving animals with undetectable tumors (RPMI 8226 myeloma cells; end of 6 weeks, lenalidomide alone, 15 mg/kg or 50 mg/kg i.p. 5x/week): No surviving animals
- median survival (RPMI 8226 myeloma cells; lenalidomide 15 mg/kg i.p. 5x/week): 53 days
- tumor growth inhibited compared to control nanoparticles ([1]; end of the second cycle of dosing, lenalidomide 50 mg/kg i.p. 5x per week (alone, or with SNS01-T 0.375 mg/kg i.v. twice per week)): 34%
- median survival ([1]; lenalidomide 50 mg/kg i.p. 5x per week, study length 102 days): 95 days

— patent publication US20150126582A1, “Combination Treatment of Multiple Myeloma” (Sevion Therapeutics, Inc., priority 2012, published 2015)
